Reference: patent US20100267561A1, “HERBICIDAL PYRIDAZINONE DERIVATIVES” (priority 2007, published 2010)

Experiments:
Format in all cases: in vivo
rice (Oryza sativa) = experiment: Test B flooded paddy test plant response
In short: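 2-leaf plants; pots flooded 3 cm above soil; compound added to paddy water; depth maintained. Greenhouse 13–15 d. Visual rating vs controls, 0 (no effect) to 100 (complete control); dash = no result.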

[1] = test system: downy bromegrass (Bromus tectorum); experiment: Test B pre-/postemergence plant response; details: for Bromegrass, Downy plant response rating: 8 g ai/ha
In short: (§1)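 Seeds were sown and sprayed preemergence, while plants at 2 to 18 cm (1- to 4-leaf stage) got postemergence sprays. Compounds were formulated in a non-phytotoxic solvent mixture with surfactant. After 13 to 15 days in a greenhouse, injury was rated visually against untreated controls, 0 (no effect) to 100 (complete control).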

[2] = test system: catchweed bedstraw (Galium aparine); experiment: Test B pre-/postemergence plant response; details: Preemergence
In short: as §1

[3] = test system: wheat (Triticum aestivum); experiment: Test B pre-/postemergence plant response; details: for Wheat plant response rating: 8 g ai/ha
In short: as §1

[4] = test system: green foxtail (Setaria viridis); experiment: Test B pre-/postemergence plant response; details: for Foxtail, Green plant response rating: 8 g ai/ha
In short: as §1

[5] = test system: large crabgrass (Digitaria sanguinalis); experiment: Test B pre-/postemergence plant response; details: for Crabgrass, Large plant response rating: 8 g ai/ha
In short: as §1

[6] = test system: pigweed (Amaranthus retroflexus); experiment: Test B pre-/postemergence plant response; details: for Pigweed plant response rating: 8 g ai/ha
In short: as §1

soybean (Glycine max) = experiment: Test B pre-/postemergence plant response; details: for Soybean plant response rating: 8 g ai/ha
In short: as §1

[7] = test system: common (oilseed) sunflower (Helianthus annuus); experiment: Test B pre-/postemergence plant response; details: Preemergence
In short: as §1

[8] = test system: cocklebur (Xanthium strumarium); experiment: Test B pre-/postemergence plant response; details: for Cocklebur plant response rating: 8 g ai/ha
In short: as §1

[9] = test system: velvetleaf (Abutilon theophrasti); experiment: Test B pre-/postemergence plant response; details: for Velvetleaf plant response rating: 8 g ai/ha
In short: as §1

[10] = test system: goosegrass (Eleusine indica); experiment: Test B pre-/postemergence plant response; details: for Goosegrass plant response rating: 8 g ai/ha
In short: as §1

[11] = test system: woolly cupgrass (Eriochloa villosa); experiment: Test B pre-/postemergence plant response; details: for Cupgrass, Woolly plant response rating: 8 g ai/ha
In short: as §1

[12] = test system: Russian thistle (Salsola iberica); experiment: Test B pre-/postemergence plant response; details: Preemergence
In short: as §1

[13] = Postemergence, 16 g ai/ha, scale 0 to 100
[14] = Postemergence, 31 g ai/ha, scale 0 to 100, 0 no effect, 100 complete control
[15] = Postemergence, 62 g ai/ha, scale 0 to 100, 0 no effect, 100 complete control
[16] = Preemergence, 16 g ai/ha, scale 0 to 100 (0 no effect, 100 complete control)
[17] = Preemergence, 31 g ai/ha, 0 to 100 scale, 0 no effect, 100 complete control
[18] = Preemergence, 62 g ai/ha, scale 0 to 100
[19] = 16 g ai/ha, scale 0 to 100 (0 no effect, 100 complete control)
[20] = Preemergence, 31 g ai/ha, scale 0 to 100 (0 no effect, 100 complete control)
[21] = Preemergence, 62 g ai/ha, 0 to 100 scale, 0 no effect, 100 complete control
[22] = 31 g ai/ha, scale 0 to 100 (0 no effect, 100 complete control)

CCCc1cc(-c2ccc(Cl)cc2)nn1-c1c(O)cnn(C)c1=O [Compound 43]
Plant response rating, Rice (rice (Oryza sativa); Flood (flooded paddy test), 62 g ai/ha, scale 0 to 100, 0 no effect, 100 complete control): 15
Plant response rating, Rice (rice (Oryza sativa); Flood (flooded paddy test), 125 g ai/ha, scale 0 to 100, 0 no effect, 100 complete control): 20
Plant response rating, Rice (rice (Oryza sativa); Flood (flooded paddy test), 250 g ai/ha, scale 0 to 100, 0 no effect, 100 complete control): 20
Plant response rating, Rice (rice (Oryza sativa); Flood, 31 g ai/ha, scale 0 to 100): 0
Bromegrass, Downy plant response rating ([1]; postemergence, 0-100 scale): 40
Plant response rating, Bromegrass, Downy [1, 13]: 45
Plant response rating, Bromegrass, Downy [1, 14]: 60
Plant response rating, Bromegrass, Downy [1, 15]: 65
Plant response rating, Bromegrass, Downy [1, 16]: 0
Plant response rating, Bromegrass, Downy [1, 17]: 70
Plant response rating, Bromegrass, Downy [1, 18]: 80
Bromegrass, Downy plant response rating ([1]; Preemergence, scale 0 to 100): 0
Plant response rating, Galium [2, 19]: 0
Plant response rating, Galium ([2]; 31 g ai/ha, 0 to 100 scale, 0 no effect, 100 complete control): 0
Plant response rating, Galium ([2]; 62 g ai/ha, scale 0 to 100): 0
Galium plant response rating ([2]; 8 g ai/ha, scale 0 to 100): 0
Wheat plant response rating ([3]; postemergence, 0-100 scale): 30
Plant response rating, Wheat [3, 13]: 70
Plant response rating, Wheat [3, 15]: 100
Plant response rating, Wheat [3, 16]: 10
Plant response rating, Wheat [3, 20]: 15
Plant response rating, Wheat [3, 21]: 80
Wheat plant response rating ([3]; Preemergence, scale 0 to 100): 0
Foxtail, Green plant response rating ([4]; postemergence, 0-100 scale): 60
Plant response rating, Foxtail, Green [4, 13]: 75
Plant response rating, Foxtail, Green [4, 14]: 100
Plant response rating, Foxtail, Green [4, 15]: 100
Plant response rating, Foxtail, Green [4, 16]: 100
Plant response rating, Foxtail, Green [4, 17]: 100
Plant response rating, Foxtail, Green [4, 18]: 100
Foxtail, Green plant response rating ([4]; Preemergence, scale 0 to 100): 100
Crabgrass, Large plant response rating ([5]; postemergence, 0-100 scale): 65
Plant response rating, Crabgrass, Large [5, 13]: 70
Plant response rating, Crabgrass, Large [5, 14]: 75
Plant response rating, Crabgrass, Large [5, 15]: 85
Plant response rating, Crabgrass, Large [5, 16]: 65
Plant response rating, Crabgrass, Large [5, 17]: 98
Plant response rating, Crabgrass, Large [5, 18]: 100
Crabgrass, Large plant response rating ([5]; Preemergence, scale 0 to 100): 15
Pigweed plant response rating ([6]; postemergence, 0-100 scale): 0
Plant response rating, Pigweed [6, 13]: 0
Plant response rating, Pigweed [6, 14]: 0
Plant response rating, Pigweed [6, 15]: 0
Plant response rating, Pigweed [6, 16]: 0
Plant response rating, Pigweed [6, 20]: 0
Plant response rating, Pigweed [6, 18]: 0
Pigweed plant response rating ([6]; Preemergence, scale 0 to 100): 0
Soybean plant response rating (soybean (Glycine max); postemergence, 0-100 scale): 0
Plant response rating, Soybean (soybean (Glycine max); [13]): 0
Plant response rating, Soybean (soybean (Glycine max); [15]): 0
Plant response rating, Soybean (soybean (Glycine max); [16]): 0
Plant response rating, Soybean (soybean (Glycine max); [20]): 0
Plant response rating, Soybean (soybean (Glycine max); [18]): 0
Soybean plant response rating (soybean (Glycine max); Preemergence, scale 0 to 100): 0
Plant response rating, Sunflower [7, 19]: 0
Plant response rating, Sunflower [7, 22]: 0
Plant response rating, Sunflower ([7]; 62 g ai/ha, scale 0 to 100): 0
Sunflower plant response rating ([7]; 8 g ai/ha, scale 0 to 100): 0
Cocklebur plant response rating ([8]; postemergence, 0-100 scale): 0
Plant response rating, Cocklebur [8, 13]: 0
Plant response rating, Cocklebur [8, 14]: 0
Plant response rating, Cocklebur [8, 15]: 0
Plant response rating, Cocklebur [8, 16]: 0
Plant response rating, Cocklebur [8, 17]: 0
Plant response rating, Cocklebur [8, 18]: 0
Cocklebur plant response rating ([8]; Preemergence, scale 0 to 100): 0
Velvetleaf plant response rating ([9]; postemergence, 0-100 scale): 0
Plant response rating, Velvetleaf [9, 13]: 0
Plant response rating, Velvetleaf [9, 15]: 0
Plant response rating, Velvetleaf [9, 16]: 0
Plant response rating, Velvetleaf [9, 20]: 0
Plant response rating, Velvetleaf [9, 21]: 0
Velvetleaf plant response rating ([9]; Preemergence, scale 0 to 100): 0
Goosegrass plant response rating ([10]; postemergence, 0-100 scale): 60
Plant response rating, Goosegrass [10, 13]: 70
Plant response rating, Goosegrass [10, 14]: 75
Plant response rating, Goosegrass [10, 15]: 85
Plant response rating, Goosegrass [10, 16]: 75
Plant response rating, Goosegrass [10, 17]: 98
Plant response rating, Goosegrass [10, 18]: 100
Goosegrass plant response rating ([10]; Preemergence, scale 0 to 100): 65
Cupgrass, Woolly plant response rating ([11]; postemergence, 0-100 scale): 80
Plant response rating, Cupgrass, Woolly [11, 13]: 90
Plant response rating, Cupgrass, Woolly [11, 14]: 95
Plant response rating, Cupgrass, Woolly [11, 15]: 95
Plant response rating, Cupgrass, Woolly [11, 16]: 60
Plant response rating, Cupgrass, Woolly [11, 17]: 98
Plant response rating, Cupgrass, Woolly [11, 18]: 100
Cupgrass, Woolly plant response rating ([11]; Preemergence, scale 0 to 100): 0
Plant response rating, Russian Thistle [12, 19]: 0
Plant response rating, Russian Thistle [12, 22]: 0
Plant response rating, Russian Thistle ([12]; 62 g ai/ha, scale 0 to 100): 0
Russian Thistle plant response rating ([12]; 8 g ai/ha, scale 0 to 100): 0
